Assay results as given in patent US11230543B2, “Biaryl monobactam compounds and methods of use thereof for the treatment of bacterial infections” (priority 2015, dated 2022).
Structures can show the parent of a compound that is named as a salt.

Legend:
[1] = system: Klebsiella pneumoniae expressing KPC-1 (CL6569); experiment: Antibiotic activity: growth inhibitory concentration (OD600), Klebsiella pneumoniae CL6569; assay type: cell-based; settings: lowest concentration inhibiting 95% of bacterial growth; in the presence of β lactamase inhibitor Relebactam 4 μg/mL; 35±2° C. for 22 hours; tested range 100 μM to 0.098 μM
Method in brief: (§1)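 Clinical strains at ~2×10^5 CFU/mL in cation-adjusted Mueller-Hinton II broth, with relebactam at 4 μg/mL final; compounds 100 μM to 0.098 μM final. After 22 hours at 35±2° C, OD600 read; MITC95 is lowest concentration giving 95% growth inhibition.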

[2] = system: Pseudomonas aeruginosa expressing AmpC (CL5701); experiment: Antibiotic activity: growth inhibitory concentration (OD600), Pseudomonas aeruginosa CL5701; assay type: cell-based; settings: lowest concentration inhibiting 95% of bacterial growth; in the presence of β lactamase inhibitor Relebactam 4 μg/mL; 35±2° C. for 22 hours; tested range 100 μM to 0.098 μM
Method in brief: as §1

| Structure (SMILES) | KP_CL6569 MITC95 [1] [µM] | PA_CL5701 MITC95 [2] [µM] |
| --- | --- | --- |
| CC(CN)Nc1ccc(-c2ccc(OC[C@H](O/N=C(\C(=O)N[C@@H]3C(=O)N(OS(=O)(=O)[O-])C3(C)C)c3csc(N)n3)C(=O)O)cc2)c[n+]1C (stereo partly drawn) [Example 76, (3S)-3-((Z)-2-(((1S)-2-(4-(6-((1-aminopropan-2-yl)amino)-1-methylpyridin-1-ium-3-yl)phenoxy)-1-carboxyethoxy)imino)-2-(2-aminothiazol-4-yl)acetamido)-2,2-dimethyl-4-oxoazetidin-1-yl sulfate] | 0.1953 | 3.125 |
| C[n+]1cc(-c2ccc(OC[C@H](O/N=C(\C(=O)N[C@@H]3C(=O)N(OS(=O)(=O)[O-])C3(C)C)c3csc(N)n3)C(=O)O)cc2)cnc1NCCN [Example 77, (S)-3-((Z)-2-(((S)-2-(4-(2-((2-aminoethyl)amino)-1-methylpyrimidin-1-ium-5-yl)phenoxy)-1-carboxyethoxy)imino)-2-(2-aminothiazol-4-yl)acetamido)-2,2-dimethyl-4-oxoazetidin-1-yl sulfate] | 0.3906 | 3.125 |
| C[n+]1cc(-c2ccc(OC[C@H](O/N=C(\C(=O)N[C@@H]3C(=O)N(OS(=O)(=O)[O-])C3(C)C)c3csc(N)n3)C(=O)O)cc2)ccc1CNCCN [Example 78, (S)-3-((Z)-2-(((S)-2-(4-(6-(((2-aminoethyl)amino)methyl)-1-methylpyridin-1-ium-3-yl)phenoxy)-1-carboxyethoxy)imino)-2-(2-aminothiazol-4-yl)acetamido)-2,2-dimethyl-4-oxoazetidin-1-yl sulfate] | 0.7813 | 12.5 |
| C[n+]1cc(-c2ccc(OC[C@H](O/N=C(\C(=O)N[C@@H]3C(=O)N(OS(=O)(=O)[O-])C3(C)C)c3csc(N)n3)C(=O)O)cc2)ccc1CNC(CN)CN [Example 79, (S)-3-((Z)-2-(2-aminothiazol-4-yl)-2-(((S)-1-carboxy-2-(4-(6-(((1,3-diaminopropan-2-yl)amino)methyl)-1-methylpyridin-1-ium-3-yl)phenoxy)ethoxy)imino)acetamido)-2,2-dimethyl-4-oxoazetidin-1-yl sulfate] | 0.3906 | 6.25 |
| C[n+]1cc(-c2ccc(OC[C@H](O/N=C(\C(=O)N[C@@H]3C(=O)N(OS(=O)(=O)[O-])C3(C)C)c3csc(N)n3)C(=O)O)cc2)ccc1C(=O)NC(CN)CN [Example 80, (S)-3-((Z)-2-(2-aminothiazol-4-yl)-2-(((S)-1-carboxy-2-(4-(6-((1,3-diaminopropan-2-yl)carbamoyl)-1-methylpyridin-1-ium-3-yl)phenoxy)ethoxy)imino)acetamido)-2,2-dimethyl-4-oxoazetidin-1-yl sulfate] | 0.1953 | 3.125 |
| CC1(C)[C@H](NC(=O)/C(=N\O[C@@H](COc2ccc(-c3ccc(C(=O)NC(CN)CN)nc3)cc2)C(=O)O)c2csc(N)n2)C(=O)N1OS(=O)(=O)O [Example 81, (S)-2-((((Z)-1-(2-aminothiazol-4-yl)-2-(((S)-2,2-dimethyl-4-oxo-1-(sulfooxy)azetidin-3-yl)amino)-2-oxoethylidene)amino)oxy)-3-(4-(6-((1,3-diaminopropan-2-yl)carbamoyl)pyridin-3-yl)phenoxy)propanoic acid] | 0.1953 | 3.125 |
| C[n+]1cc(-c2ccc(OC[C@H](O/N=C(\C(=O)N[C@@H]3C(=O)N(OS(=O)(=O)[O-])C3(C)C)c3csc(N)n3)C(=O)O)cc2)ccc1NC(CN)CN [Example 82, (S)-3-((Z)-2-(2-aminothiazol-4-yl)-2-(((S)-1-carboxy-2-(4-(6-((1,3-diaminopropan-2-yl)amino)-1-methylpyridin-1-ium-3-yl)phenoxy)ethoxy)imino)acetamido)-2,2-dimethyl-4-oxoazetidin-1-yl sulfate] | 0.1953 | 3.125 |
